Results on 10 compounds are retold here after ChEMBL document CHEMBL5226348, “Recent Progress of Small Molecule Menin-MLL Interaction Inhibitors as Therapeutic Agents for Acute Leukemia” (J Med Chem, 2021).

Data set [1] has as its system MV4-11. Kind of data set: Antiproliferative activity against human MV4-11 cells. The format is functional.
The target of data set [2] is T1, Menin/Histone-lysine N-methyltransferase MLL (Homo sapiens, UniProt O00255). Kind of data set: Inhibition of human Menin to MLL protein-protein interaction. The format is protein assay.
The test system of data set [3] is MOLM-13. Kind of data set: Antiproliferative activity against human MOLM-13 cells. The format is functional.
Data set [4] deals with T1, Menin/Histone-lysine N-methyltransferase MLL. The experiment in a line: Inhibition of Menin to MLL (unknown origin) protein-protein interaction. The format is protein assay.
The nature of data set [5]: Oral bioavailability in mouse. Conditions: in vivo. Format: ADME, organism-based.

T1 sequence (O00255 whole entry): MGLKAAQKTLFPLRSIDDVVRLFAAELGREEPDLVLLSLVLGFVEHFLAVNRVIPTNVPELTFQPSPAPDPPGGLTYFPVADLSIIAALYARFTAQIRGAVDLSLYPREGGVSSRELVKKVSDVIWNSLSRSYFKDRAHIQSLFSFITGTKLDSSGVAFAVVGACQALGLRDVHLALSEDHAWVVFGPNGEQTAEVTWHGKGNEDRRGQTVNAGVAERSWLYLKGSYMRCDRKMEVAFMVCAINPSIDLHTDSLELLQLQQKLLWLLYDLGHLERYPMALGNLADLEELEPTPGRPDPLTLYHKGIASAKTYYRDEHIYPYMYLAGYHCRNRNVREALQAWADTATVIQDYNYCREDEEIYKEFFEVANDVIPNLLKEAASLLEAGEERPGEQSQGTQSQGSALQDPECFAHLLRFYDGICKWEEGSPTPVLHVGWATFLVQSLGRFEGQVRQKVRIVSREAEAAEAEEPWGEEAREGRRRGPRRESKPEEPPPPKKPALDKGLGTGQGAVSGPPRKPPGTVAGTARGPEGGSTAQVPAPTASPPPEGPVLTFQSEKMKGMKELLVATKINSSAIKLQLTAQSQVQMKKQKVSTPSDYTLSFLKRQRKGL
T1 sequence (Q03164 1-2718 partner limits assumed): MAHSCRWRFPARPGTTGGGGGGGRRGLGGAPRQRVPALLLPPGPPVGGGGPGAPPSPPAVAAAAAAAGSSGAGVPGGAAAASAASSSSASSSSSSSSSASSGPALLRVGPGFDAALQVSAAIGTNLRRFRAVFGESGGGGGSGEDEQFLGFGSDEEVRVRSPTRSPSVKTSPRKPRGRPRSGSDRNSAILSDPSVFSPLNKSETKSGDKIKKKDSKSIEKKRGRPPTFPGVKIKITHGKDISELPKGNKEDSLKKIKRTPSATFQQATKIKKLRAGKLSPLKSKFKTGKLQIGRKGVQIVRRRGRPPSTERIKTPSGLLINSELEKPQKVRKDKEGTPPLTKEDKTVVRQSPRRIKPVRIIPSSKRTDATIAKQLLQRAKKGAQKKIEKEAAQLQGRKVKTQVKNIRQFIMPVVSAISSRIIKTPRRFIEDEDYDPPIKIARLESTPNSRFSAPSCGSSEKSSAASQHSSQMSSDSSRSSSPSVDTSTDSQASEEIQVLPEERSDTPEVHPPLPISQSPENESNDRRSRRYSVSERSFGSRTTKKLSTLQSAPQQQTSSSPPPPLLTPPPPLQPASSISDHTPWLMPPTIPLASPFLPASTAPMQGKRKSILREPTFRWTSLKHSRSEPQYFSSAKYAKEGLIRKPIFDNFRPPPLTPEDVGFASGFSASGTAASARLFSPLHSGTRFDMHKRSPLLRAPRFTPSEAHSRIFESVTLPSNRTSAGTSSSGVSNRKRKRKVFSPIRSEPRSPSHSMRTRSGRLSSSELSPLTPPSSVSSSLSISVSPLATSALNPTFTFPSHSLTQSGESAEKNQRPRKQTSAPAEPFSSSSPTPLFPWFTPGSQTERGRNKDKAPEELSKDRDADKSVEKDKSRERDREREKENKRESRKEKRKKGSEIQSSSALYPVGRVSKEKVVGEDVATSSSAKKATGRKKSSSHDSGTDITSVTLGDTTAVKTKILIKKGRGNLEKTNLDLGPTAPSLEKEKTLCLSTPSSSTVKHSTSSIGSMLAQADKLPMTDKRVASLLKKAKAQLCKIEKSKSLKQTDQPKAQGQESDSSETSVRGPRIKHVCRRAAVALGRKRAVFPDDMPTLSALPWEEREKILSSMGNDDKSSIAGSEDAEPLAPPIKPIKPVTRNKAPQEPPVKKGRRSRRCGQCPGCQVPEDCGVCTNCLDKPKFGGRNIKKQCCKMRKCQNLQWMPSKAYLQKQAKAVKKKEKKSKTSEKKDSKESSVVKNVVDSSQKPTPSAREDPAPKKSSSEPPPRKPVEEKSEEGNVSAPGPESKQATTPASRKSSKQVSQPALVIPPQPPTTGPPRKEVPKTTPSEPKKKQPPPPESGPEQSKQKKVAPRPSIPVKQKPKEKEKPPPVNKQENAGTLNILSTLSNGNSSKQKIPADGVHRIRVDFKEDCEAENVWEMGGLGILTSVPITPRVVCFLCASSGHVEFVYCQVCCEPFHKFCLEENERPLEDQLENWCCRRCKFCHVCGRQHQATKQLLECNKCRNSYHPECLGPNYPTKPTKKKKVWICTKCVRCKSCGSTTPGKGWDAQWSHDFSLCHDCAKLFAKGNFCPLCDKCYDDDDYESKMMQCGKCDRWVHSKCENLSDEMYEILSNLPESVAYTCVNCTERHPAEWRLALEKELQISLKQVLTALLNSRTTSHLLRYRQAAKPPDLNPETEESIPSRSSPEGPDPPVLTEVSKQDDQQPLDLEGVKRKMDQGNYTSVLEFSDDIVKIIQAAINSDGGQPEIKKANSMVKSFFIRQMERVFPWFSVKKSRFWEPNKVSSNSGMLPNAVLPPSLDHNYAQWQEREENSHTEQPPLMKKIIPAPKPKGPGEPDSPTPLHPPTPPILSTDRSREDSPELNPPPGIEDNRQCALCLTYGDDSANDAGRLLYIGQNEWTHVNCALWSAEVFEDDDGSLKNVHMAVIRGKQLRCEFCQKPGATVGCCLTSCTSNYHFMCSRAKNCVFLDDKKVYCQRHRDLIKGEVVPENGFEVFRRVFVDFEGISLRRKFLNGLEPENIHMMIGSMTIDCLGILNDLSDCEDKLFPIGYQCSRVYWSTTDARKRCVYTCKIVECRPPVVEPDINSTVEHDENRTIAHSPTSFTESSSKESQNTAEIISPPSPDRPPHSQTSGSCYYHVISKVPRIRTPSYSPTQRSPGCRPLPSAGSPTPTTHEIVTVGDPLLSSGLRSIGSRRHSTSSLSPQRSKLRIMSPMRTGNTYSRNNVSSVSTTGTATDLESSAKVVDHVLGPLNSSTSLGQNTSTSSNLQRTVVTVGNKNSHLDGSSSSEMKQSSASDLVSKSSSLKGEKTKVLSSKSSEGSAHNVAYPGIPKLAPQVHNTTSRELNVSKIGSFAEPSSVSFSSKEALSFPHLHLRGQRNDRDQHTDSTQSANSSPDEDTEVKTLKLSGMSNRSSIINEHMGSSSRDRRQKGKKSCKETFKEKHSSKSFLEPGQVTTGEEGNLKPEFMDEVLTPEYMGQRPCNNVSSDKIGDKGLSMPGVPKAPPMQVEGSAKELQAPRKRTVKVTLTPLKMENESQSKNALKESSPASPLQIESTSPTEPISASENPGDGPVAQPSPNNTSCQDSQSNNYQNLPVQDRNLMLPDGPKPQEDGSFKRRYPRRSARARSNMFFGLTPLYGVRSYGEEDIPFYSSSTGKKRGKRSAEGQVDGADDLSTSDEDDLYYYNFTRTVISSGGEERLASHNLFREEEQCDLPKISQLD
T1 sequence (Q03164 2719-3969 partner limits assumed): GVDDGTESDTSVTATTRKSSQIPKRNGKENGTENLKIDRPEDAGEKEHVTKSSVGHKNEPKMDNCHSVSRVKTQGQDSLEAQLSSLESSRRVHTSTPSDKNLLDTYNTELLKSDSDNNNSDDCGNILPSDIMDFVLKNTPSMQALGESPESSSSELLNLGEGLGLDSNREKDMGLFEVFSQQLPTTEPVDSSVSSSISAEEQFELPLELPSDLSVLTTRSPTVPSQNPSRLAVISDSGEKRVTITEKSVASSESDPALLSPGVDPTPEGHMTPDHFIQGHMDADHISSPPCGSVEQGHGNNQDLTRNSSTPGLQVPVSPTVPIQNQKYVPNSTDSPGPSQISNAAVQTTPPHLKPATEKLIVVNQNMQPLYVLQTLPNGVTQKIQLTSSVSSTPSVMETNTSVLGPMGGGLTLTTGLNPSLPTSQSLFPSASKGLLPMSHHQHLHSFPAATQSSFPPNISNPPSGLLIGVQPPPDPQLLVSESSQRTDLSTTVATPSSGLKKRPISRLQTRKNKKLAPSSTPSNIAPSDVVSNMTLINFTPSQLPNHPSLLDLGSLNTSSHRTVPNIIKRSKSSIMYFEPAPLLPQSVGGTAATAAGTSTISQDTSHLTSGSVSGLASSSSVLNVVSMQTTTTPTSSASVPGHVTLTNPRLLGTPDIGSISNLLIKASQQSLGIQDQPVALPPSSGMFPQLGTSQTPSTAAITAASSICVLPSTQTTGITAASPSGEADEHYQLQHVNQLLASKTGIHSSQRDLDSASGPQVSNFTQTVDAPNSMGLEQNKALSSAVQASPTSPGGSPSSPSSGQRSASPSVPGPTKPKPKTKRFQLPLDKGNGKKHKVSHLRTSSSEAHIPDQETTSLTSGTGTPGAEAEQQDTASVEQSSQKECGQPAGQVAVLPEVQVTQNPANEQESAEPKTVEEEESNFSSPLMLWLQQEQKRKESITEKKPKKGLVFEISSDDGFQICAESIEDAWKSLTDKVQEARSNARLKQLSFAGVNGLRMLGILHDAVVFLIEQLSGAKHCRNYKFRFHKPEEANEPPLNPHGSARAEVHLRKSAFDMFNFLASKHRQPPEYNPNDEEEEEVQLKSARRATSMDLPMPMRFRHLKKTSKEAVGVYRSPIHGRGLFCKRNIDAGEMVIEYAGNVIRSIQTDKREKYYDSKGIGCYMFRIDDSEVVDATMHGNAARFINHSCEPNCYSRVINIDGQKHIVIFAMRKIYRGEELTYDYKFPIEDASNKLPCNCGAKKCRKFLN

Turning to `CNc1nc(NC2CCN(Cc3ccc4c(cc(C#N)n4CC45CC(NC=O)(C4)C5)c3C)CC2)c2cc(CC(F)(F)F)sc2n1`, the results for the GI50 in data set [1] and in data set [3] were 0.0076 µM and 0.0125 µM, respectively. Moreover, the IC50 in data set [2] is 0.0005 µM.

Regarding `CC(C)N(C(=O)c1cc(F)ccc1Oc1cncnc1N1CC2(CCN(C[C@H]3CC[C@H](NS(C)(=O)=O)CC3)CC2)C1)C(C)C`, the GI50 amounted to 0.017 µM in data set [1] and 0.013 µM in data set [3]. In data set [4], it took 40 µM to reach half-maximal inhibition (IC50).

For `COC(=O)N[C@H]1CCC[C@@H]1[C@](C#N)(c1cccc(F)c1)C1CCN(CC2CN(c3ccc(S(=O)(=O)C4CN(C(=O)/C=C/CN(C)C)C4)cc3)C2)CC1`, the GI50 amounted to 0.0027 µM in data set [1] and 0.0154 µM in data set [3].

In data set [2], `NCC(CCN1CC=C(c2ccc(Cl)cc2)CC1)(c1ccccc1)C1CCCC1` (stereo not given) gave an IC50 of 0.00083 µM.

In data set [5], `Cc1c(CN2CCC(Nc3ncnc4sc(CC(F)(F)F)cc34)CC2)ccc2c1cc(C#N)n2Cc1cn[nH]c1` came in with a bioavailability of 73%.

`C[C@@]12CN(CC(O)CCCc3ccccc3)C[C@@](C)(C1)c1cccc(=O)n1C2` (stereo not given in full) yielded an IC50 in data set [4] of 0.001 µM.

As for `CCCc1cc2c(N3CCN(C4=NCC(C)(C)S4)CC3)ncnc2s1`, in data set [1], the GI50 turned out to be 9.5 µM.

In data set [2], `Clc1ccc2c(NCCN3CCN(CCCCCCCN4CCN(CCNc5ccnc6cc(Cl)ccc56)CC4)CC3)ccnc2c1` gave an IC50 of 0.0047 µM.

On to `Cc1c(CN2CCC(Nc3ncnc4sc(CC(F)(F)F)cc34)CC2)ccc2[nH]c(C#N)cc12`, for which the bioavailability in data set [5] was determined as 44%.

As for `O=c1cccc2n1C[C@@H]1C[C@H]2CN(CC(O)CSCc2ccccc2)C1` (stereo not given in full), half-maximal inhibition in data set [4] (IC50) required 0.04 µM.

A word on the GI50: it is the concentration at which growth is held to half of that of the control. A higher GI50 goes with lower sensitivity of the cells. One may read the IC50 as the point on the concentration scale where inhibition reaches its midpoint. A lower IC50 goes with greater potency. What is called bioavailability is the share of a dose that reaches the circulation, judged against a reference dose that is usually intravenous.
